Laboratory results: patent US4087520A, “Lowering blood pressure with new L-3-(3,4-dihydroxyphenyl)-2-methyl-alanine peptides” (Boehringer Mannheim GmbH, priority 1975, dated 1978)

System: blood pressure of rats with arterial high pressure
Assay: Blood pressure depression in awake hypertensive rats (11-deoxycorticosteroneacetate plus common salt), direct arterial catheter measurement
Format: in vivo
Conditions: hypertensive rats (10% sodium chloride in feed + 11-deoxycorticosteroneacetate), 0.6 millimole/kg perorally in 1% methyl cellulose, 4 hours after oral application, median of at least 6 measurements
Method: The test animals were rats into which arterial catheters had been implanted in a sterile operation via the arteria femoralis into the aorta. It was possible to measure the animals' blood pressure in the awake state directly in the blood with a transducer (Statham Transducer Type TP 23 D 6) via a carrier frequency measuring bridge. The animals were treated by administration of 10% common salt (sodium chloride) in their feed and, starting on the sixth week of their life, two injections per week of 5 mg at a time of 11-deoxycorticosteroneacetate per animal and thus developed an arterial high pressure in the median with values of […]. The test compounds were administered to the animals as follows: After the blood pressure control values had been determined, the animals received the test compound perorally suspended in 10 ml of 1% methyl cellusose solution in a dosage of 0.6 millimole/kg and measurements were taken 4 hours after oral application of the substance.
The values set forth in the Table represent in each case the median of at least 6 individual measurements of blood pressure depression (in mm Hg) per applied substance.

## C[C@](N)(Cc1ccc(O)c(O)c1)C(=O)O [α-Methyl-Dopa, L-3-(3,4-dihydroxyphenyl)-2-methyl-alanine]
  Blood Pressure Reduction: 33 ± 4.9 mm Hg

## C[C@@](Cc1ccc(O)c(O)c1)(NC(=O)[C@@H](N)CO)C(=O)O [L-Seryl-L-3-(3,4-dihydroxyphenyl)-2-methyl-alanine]
  Blood Pressure Reduction: 52 ± 7.5 mm Hg

## C[C@@](Cc1ccc(O)c(O)c1)(NC(=O)CN)C(=O)O [Glycyl-L-3-(3,4-dihydroxyphenyl)-2-methyl-alanine]
  Blood Pressure Reduction: 37 ± 9.1 mm Hg

## C[C@H](N)C(=O)N[C@@](C)(Cc1ccc(O)c(O)c1)C(=O)O [L-Alanyl-L-3-(3,4-dihydroxyphenyl)-2-methyl-alanine]
  Blood Pressure Reduction: 51 ± 6.0 mm Hg

## C[C@H](N)C(=O)N[C@@H](C)C(=O)N[C@@](C)(Cc1ccc(O)c(O)c1)C(=O)O [L-Alanyl-L-alanyl-L-3-(3,4-dihydroxyphenyl)-2-methylalanine]
  Blood Pressure Reduction: 58 ± 5.8 mm Hg
